Experimental data from BigSolDB 2.1.

CN1c2ccccc2C(=O)N2CCc3c([nH]c4ccccc34)[C@H]21
solubility (mole fraction)
Conditions | 283.15 K | 288.15 K | 293.15 K | 298.15 K | 303.15 K | 308.15 K | 313.15 K | 318.15 K | 323.15 K
in acetone | 0.000192 | 0.000226 | 0.000267 | 0.000315 | 0.000364 | 0.000426 | 0.000491 | 0.000571 | 0.000651
in ethanol | 5.94e-05 | 7.31e-05 | 8.95e-05 | 0.00011 | 0.000132 | 0.000157 | 0.000186 | 0.000222 | 0.000263
in isopropanol | 6.79e-05 | 8.16e-05 | 9.91e-05 | 0.000121 | 0.000142 | 0.00017 | 0.0002 | 0.000237 | 0.000276
in methanol | 3.43e-05 | 4.34e-05 | 5.4e-05 | 6.72e-05 | 8.31e-05 | 0.000102 | 0.000124 | 0.000149 | 0.000182
